According to publication PMC11594329, “Development of LAT1-Selective Nuclear Medicine Therapeutics Using Astatine-211” (International Journal of Molecular Sciences, 2024):

Assays:
PANC-1 tumor model = experiment: Tissue distribution in nude mice (PANC-1 tumor model); format: in vivo, BALB/c nu/nu mice; details: nude mice (PANC-1 tumor model)
Protocol: BALB/c nu/nu mice (male, 5 weeks old) were purchased from Japan SLC (Shizuoka, Japan) and subcutaneously transplanted at a density of 1 × 10^7 cells/mouse. PANC-1 cells that reached the logarithmic growth phase were transplanted subcutaneously by mixing a 1 × 10^8 cells/mL cell suspension with an equivalent volume of Matrigel (Corning, Corning, NY, USA) to obtain 1 × 10^7 cells per mouse. Experiments were performed after the size of the transplanted tumor had exceeded 50 mm^3. The doses in the distribution experiments were as follows: ^211At-AAMT-OH-L (0.501 ± 0.011 MBq/mouse, 19.91 ± 0.59 g, n = 3) and ^211At-AAMT-O-Me-L (0.384 ± 0.003 MBq/mouse, 19.18 ± 0.38 g, n = 6 for Table 3), ^211At-AAMT-O-Me-L (158.10 ± 2.94 kBq/mouse, 19.27 ± 0.64 g, n = 6) and ^211At-AAMT-O-Me-D (135.08 ± 2.35 kBq/mouse, 18.64 ± 0.97 g, n = 6), ^211At-AAMT-O-Et-L (0.682 ± 0.011 MBq/mouse, 20.25 ± 1.41 g, n = 6), ^211At-AAMT-O-Pr-L (0.927 ± 0.020 MBq/mouse, 21.74 ± 0.37 g, n = 6).

[1] = Tissue distribution in ICR mice (normal animals); format: in vivo
Excerpt: ICR mice (male, 5 weeks old) were purchased from Japan SLC (Shizuoka, Japan) and acclimated for one week prior to use. The doses in the distribution experiments were as follows: ^211At-AAMT-O-Me-L (0.407 ± 0.005 MBq/mouse, 31.64 ± 0.76 g, n = 6), ^211At-AAMT-O-Me-D (0.351 ± 0.004 MBq/mouse, 31.44 ± 0.94 g, n = 6), ^211At-AAMT-O-Et-L (0.685 ± 0.010 MBq/mouse, 24.14 ± 3.31 g, n = 6), ^211At-AAMT-O-Pr-L (1.09 ± 0.06 MBq/mouse, 26.33 ± 0.39 g, n = 6)

LAT1-Tet/HEK293 cells = experiment: Uptake versus LAT1 expression level (Dox-induced) in LAT1-Tet/HEK293 cells; format: cell-based; details: collection 30 min after treatment
Protocol: Each cell line was seeded in 24 wells at 1 × 10^5 cells/mL and allowed to become sub-confluent on the day of the experiment. Cells were washed with PBS (-) (Fujifilm Wako Pure Chemical, Osaka, Japan) prior to the addition of the compound, which was then replaced with uptake buffer. After treating the cells with the same dose, they were collected at predetermined time points. The cell dose was measured using a γ-counter (Wizard^2 2480; PerkinElmer, Waltham, MA, USA), and the protein content of the sample was determined. Protein content was measured using the BCA method, and the dose was corrected using the protein content (Protein Assay BCA kit, Fujifilm Wako Pure Chemical).
Figure 2 Comparison of uptake between the labeled compounds. (A) Relation between uptake ratio and LAT1 expression level. Uptake ratios were compared between LAT1-Tet/HEK293 cells. The Y-axis represents the uptake ratio, and the X-axis is concentration of Doxycycline (Dox) (TaKaRa Bio, Shiga, Japan). The collection time was 30 min after treatment. The expression of LAT1 increased with increasing amounts of Dox. (B) Comparison of uptake in PANC-1 cell line. The collection times were 0.5, 1, 5 and 10 min after treatment.
The PANC-1 cell line was obtained from the RIKEN Cell Bank and maintained in RPMI 1640 medium (Fujifilm Wako Pure Chemical, Osaka, Japan) supplemented with 10% inactivated fetal bovine serum (Thermo Fisher Scientific, Waltham, MA, USA). Mock/HEK293, LAT1/HEK293, and LAT2/HEK203 cells were kindly provided by Dr. Kanai. Cell lines controlling LAT1 expression were constructed using the Tet-on system. HEK293 cells were obtained from the RIKEN Cell Bank and maintained in E-MEM (Fujifilm Wako Pure Chemical) supplemented with 10% inactivated fetal bovine serum (Thermo Fisher Scientific) and non-essential amino acids (Fujifilm Wako Pure Chemical). The expression vectors were purchased from VectorBuilder, Inc. (Kanagawa, Japan). The purified viral particle genes were transfected into HEK293 cells. Drug selection and cloning of the cell line (Tet-LAT1/HEK293) were performed. […]

CCOc1ccc(C[C@](C)(N)C(=O)O)cc1[211At] [^211At-AAMT-O-Et-L]
Tissue distribution, Bladder (PANC-1 tumor model; 1 h after injection): 15.41 ± 4.39 %ID/g | Tissue distribution, Blood (PANC-1 tumor model; 1 h after injection): 3.63 ± 0.43 %ID/g | Tissue distribution, Bone (PANC-1 tumor model; 1 h after injection): 1.92 ± 0.21 %ID/g | Tissue distribution, Brain (PANC-1 tumor model; 1 h after injection): 0.65 ± 0.11 %ID/g | Tissue distribution, Cecum (PANC-1 tumor model; 1 h after injection): 2.36 ± 0.52 %ID/g | Tissue distribution, Colon (PANC-1 tumor model; 1 h after injection): 3.80 ± 0.50 %ID/g | Tissue distribution, Heart (PANC-1 tumor model; 1 h after injection): 4.41 ± 0.46 %ID/g | Tissue distribution, Kidney (PANC-1 tumor model; 1 h after injection): 6.23 ± 0.94 %ID/g | Tissue distribution, Liver (PANC-1 tumor model; 1 h after injection): 2.54 ± 0.28 %ID/g | Tissue distribution, Lung (PANC-1 tumor model; 1 h after injection): 9.69 ± 1.20 %ID/g | Tissue distribution, Pancreas (PANC-1 tumor model; 1 h after injection): 4.56 ± 0.82 %ID/g | Tissue distribution, Salivary glands (PANC-1 tumor model; 1 h after injection): 13.69 ± 2.13 %ID/g | Tissue distribution, Small intestine (PANC-1 tumor model; 1 h after injection): 4.80 ± 0.63 %ID/g | Tissue distribution, Spleen (PANC-1 tumor model; 1 h after injection): 10.32 ± 4.17 %ID/g | Tissue distribution, Stomach (PANC-1 tumor model; 1 h after injection): 33.25 ± 8.36 %ID/g | Tissue distribution, Testis (PANC-1 tumor model; 1 h after injection): 3.29 ± 0.07 %ID/g | Tissue distribution, Thyroid (PANC-1 tumor model; 1 h after injection): 24.50 ± 4.40 %ID/g | Tissue distribution, Tumor (PANC-1 tumor model; 1 h after injection): 5.64 ± 0.91 %ID/g | Tissue distribution, Bladder (PANC-1 tumor model; 3 h after injection): 12.03 ± 3.42 %ID/g | Tissue distribution, Blood (PANC-1 tumor model; 3 h after injection): 2.23 ± 0.06 %ID/g | Tissue distribution, Bone (PANC-1 tumor model; 3 h after injection): 1.41 ± 0.16 %ID/g | Tissue distribution, Brain (PANC-1 tumor model; 3 h after injection): 0.36 ± 0.10 %ID/g | Tissue distribution, Cecum (PANC-1 tumor model; 3 h after injection): 2.80 ± 0.56 %ID/g | Tissue distribution, Colon (PANC-1 tumor model; 3 h after injection): 3.63 ± 0.34 %ID/g | Tissue distribution, Heart (PANC-1 tumor model; 3 h after injection): 5.15 ± 0.95 %ID/g | Tissue distribution, Kidney (PANC-1 tumor model; 3 h after injection): 3.74 ± 0.78 %ID/g | Tissue distribution, Liver (PANC-1 tumor model; 3 h after injection): 1.93 ± 0.23 %ID/g | Tissue distribution, Lung (PANC-1 tumor model; 3 h after injection): 10.67 ± 1.28 %ID/g | Tissue distribution, Pancreas (PANC-1 tumor model; 3 h after injection): 2.01 ± 0.20 %ID/g | Tissue distribution, Salivary glands (PANC-1 tumor model; 3 h after injection): 19.70 ± 2.93 %ID/g | Tissue distribution, Small intestine (PANC-1 tumor model; 3 h after injection): 3.23 ± 0.22 %ID/g | Tissue distribution, Spleen (PANC-1 tumor model; 3 h after injection): 13.31 ± 2.43 %ID/g | Tissue distribution, Stomach (PANC-1 tumor model; 3 h after injection): 18.47 ± 2.59 %ID/g | Tissue distribution, Testis (PANC-1 tumor model; 3 h after injection): 3.32 ± 0.33 %ID/g | Tissue distribution, Thyroid (PANC-1 tumor model; 3 h after injection): 31.26 ± 11.36 %ID/g | Tissue distribution, Tumor (PANC-1 tumor model; 3 h after injection): 5.24 ± 1.39 %ID/g | Tissue distribution, Bladder ([1]; 1 h after injection): 53.22 ± 43.79 %ID/g | Tissue distribution, Blood ([1]; 1 h after injection): 2.03 ± 0.61 %ID/g | Tissue distribution, Bone ([1]; 1 h after injection): 0.71 ± 0.32 %ID/g | Tissue distribution, Brain ([1]; 1 h after injection): 0.37 ± 0.07 %ID/g | Tissue distribution, Cecum ([1]; 1 h after injection): 0.68 ± 0.25 %ID/g | Tissue distribution, Colon ([1]; 1 h after injection): 8.32 ± 4.87 %ID/g | Tissue distribution, Heart ([1]; 1 h after injection): 6.14 ± 3.75 %ID/g | Tissue distribution, Kidney ([1]; 1 h after injection): 4.70 ± 1.68 %ID/g | Tissue distribution, Liver ([1]; 1 h after injection): 1.41 ± 0.33 %ID/g | Tissue distribution, Lung ([1]; 1 h after injection): 4.47 ± 1.34 %ID/g | Tissue distribution, Pancreas ([1]; 1 h after injection): 7.31 ± 4.45 %ID/g | Tissue distribution, Salivary glands ([1]; 1 h after injection): 7.08 ± 2.00 %ID/g | Tissue distribution, Small intestine ([1]; 1 h after injection): 12.85 ± 7.35 %ID/g | Tissue distribution, Spleen ([1]; 1 h after injection): 2.90 ± 0.95 %ID/g | Tissue distribution, Stomach ([1]; 1 h after injection): 19.50 ± 5.82 %ID/g | Tissue distribution, Testis ([1]; 1 h after injection): 2.36 ± 0.28 %ID/g | Tissue distribution, Thymus ([1]; 1 h after injection): 1.14 ± 0.68 %ID/g | Tissue distribution, Thyroid ([1]; 1 h after injection): 8.98 ± 4.12 %ID/g | Tissue distribution, Bladder ([1]; 3 h after injection): 21.28 ± 15.54 %ID/g | Tissue distribution, Blood ([1]; 3 h after injection): 0.87 ± 0.27 %ID/g | Tissue distribution, Bone ([1]; 3 h after injection): 1.00 ± 0.18 %ID/g | Tissue distribution, Brain ([1]; 3 h after injection): 0.13 ± 0.05 %ID/g | Tissue distribution, Cecum ([1]; 3 h after injection): 1.67 ± 0.24 %ID/g | Tissue distribution, Colon ([1]; 3 h after injection): 1.75 ± 0.49 %ID/g | Tissue distribution, Heart ([1]; 3 h after injection): 1.87 ± 0.80 %ID/g | Tissue distribution, Kidney ([1]; 3 h after injection): 1.56 ± 0.13 %ID/g | Tissue distribution, Liver ([1]; 3 h after injection): 1.06 ± 0.21 %ID/g | Tissue distribution, Lung ([1]; 3 h after injection): 4.93 ± 1.95 %ID/g | Tissue distribution, Pancreas ([1]; 3 h after injection): 1.20 ± 0.40 %ID/g | Tissue distribution, Salivary glands ([1]; 3 h after injection): 15.05 ± 7.81 %ID/g | Tissue distribution, Small intestine ([1]; 3 h after injection): 3.21 ± 0.88 %ID/g | Tissue distribution, Spleen ([1]; 3 h after injection): 2.09 ± 1.08 %ID/g | Tissue distribution, Stomach ([1]; 3 h after injection): 38.74 ± 10.11 %ID/g | Tissue distribution, Testis ([1]; 3 h after injection): 1.20 ± 0.36 %ID/g | Tissue distribution, Thymus ([1]; 3 h after injection): 0.26 ± 0.17 %ID/g | Tissue distribution, Thyroid ([1]; 3 h after injection): 20.22 ± 6.28 %ID/g | Uptake ratio versus LAT1 expression (doxycycline concentration) (LAT1-Tet/HEK293 cells): lower cellular uptake when LAT1 expression increased
